The experiment relates to Primary human subcutaneous white adipocytes. Put plainly: UCP1 qPCR in primary human subcutaneous white adipocytes. It counts as cell-based. The note with it: treated with SB. An excerpt:
All primary cell lines isolated from WAT were generated from outgrowth of the stromal vascular fraction and purchased from commercial vendors. All cell lines were validated to be at least 95% positive for adipogenic precursors as determined by flow cytometry for PDGFRα. Human white preadipocytes (HWP-c) cells, purchased from PromoCell (C-12730), were isolated from subcutaneous adipose tissue of a person with a BMI of 28. Normal human preadipocytes, purchased from Lonza (PT-5020), were isolated from subcutaneous adipose tissue of a person with a BMI of 21. Type 2 diabetic human preadipocytes, purchased from Lonza (PT-5022), were isolated from subcutaneous adipose tissue of a person with a BMI of 42.1. Type 2 diabetic human preadipocytes, purchased from Zenbio (OPD-F-3), were isolated from omental adipose tissue of a person with a BMI of 38.6. Type 2 diabetic human preadipocytes, purchased from Zenbio (SPD-F-3), were isolated from subcutaneous adipose tissue of a person with a BMI of 53.5. Cryopreserved cells were thawed and seeded in a 100×20 mm TC dish and treated as passage 0. Primary adipogenic precursors were expanded in DMEM containing 10% fetal bovine serum. Medium was changed daily and cells were cultured at 37° C. in a 5% CO2 incubator. Upon 80% confluence, cells are split and passaged at a ratio of 1:6 (Passage 1). […]

Consider `NC(=O)c1ccc(-c2nc(-c3ccc4c(c3)OCO4)c(-c3ccccn3)[nH]2)cc1` [SB, SB431542], for which the UCP1 expression result was “enhanced expression”.

(Values after patent US12312599B2, “Methods, compositions, and kits for producing beige adipocytes and treating metabolic disorders” (MaineHealth, priority 2018, dated 2025).)
